The record followed here is patent US9145405B2, “Oxadiazole compound and preparation method thereof, pharmaceutical composition and use thereof” (SHANGHAI JIAO TONG UNIVERSITY, priority 2011, dated 2015).

In brackets after ≈: the same amount, converted by molar mass. Like-named read-outs stand apart in the source and are kept apart here.

In one series the test system is Cox_B3 virus. Briefly: Anti-Cox_B3 test: inhibition of cytopathic effect (CPE) in infected Vero cells, Reed-Muench. The note with it: read-out: IC50 (half-inhibitory concentration for viruses). It counts as cell-based. The source says:
The present examples verifies experimental results of anti-Cox_B3 of the compounds 1-137of the present invention, Pleconaril, 3-[3,5-dimethyl-4-[5-(3-methy-1,2-oxazolyl)propoxy]phenyl]-5-(trifluonomethyl) -1,2,4-oxadiazole is used as positive control.
(Cytopathic effects are the visible damage that an infection or toxin causes in cultured cells.)

For another series, the system named is Vero cells. As to the kind of experiment: Toxicity (half toxic concentration) in the anti-Cox_B3 test on Vero cells. It counts as cell-based. The note with it: Vero cells; Cox_B3.
The mark [1] stands for this setting: Cox_B3 virus in Vero cells, CPE, Reed-Muench method.

In the case of `Cc1cc(-c2noc(C(F)(F)F)n2)cc(C)c1OCCCOc1cnc(-c2noc(C(F)(F)F)n2)cn1` [Compound 135, 2-[5-(trifluoromethyl)-1,2,4-oxadiazole-3-yl]-5-[3-[2,6-dimethyl-4-[5-(trifluoromethyl)-1,2,4-oxadiazole-3-yl]phenoxyl]propoxy]pyrazine], the IC50 in the series on Cox_B3 virus (setting [1]) was 0.038 µg/mL (≈ 0.0716 µM). For the same molecule, the “TC50 (half of the toxic concentration)” value in the series with Vero cells was 42.18 µg/mL.

As to `Cc1cc(-c2noc(C(F)(F)F)n2)cc(C)c1OCCCOc1ncc(-c2noc(C(F)(F)F)n2)cn1` [Compound 136, 2-[3-[2,6-dimethyl-4-[5-(trifluoromethyl)-1,2,4-oxadiazole-3-yl]phenoxyl]propoxy]-5-[5-(trifluoromethyl)-1,2,4-oxadiazole-3-yl]-pyrimidine], in the series on Cox_B3 virus (setting [1]), the IC50 was determined as 0.04 µg/mL (≈ 0.0754 µM). Moreover, the “TC50 (half of the toxic concentration)” value with Vero cells worked out at 41.23 µg/mL.

For `Cc1cc(-c2noc(C(F)(F)F)n2)cc(C)c1OCCCOc1ccc(-c2noc(C(F)(F)F)n2)nn1` [Compound 137, 3-[5-(trifluoromethyl)-1,2,4-oxadiazole-3-yl]-6-[3-[2,6-dimethyl-4-[5-(trifluoromethyl)-1,2,4-oxadiazole-3-yl]phenoxyl]propoxy]pyridazine], the IC50 with Cox_B3 virus (setting [1]) was determined as 0.039 µg/mL (≈ 0.0735 µM). Moreover, in the series on Vero cells, the “TC50 (half of the toxic concentration)” value is 41.65 µg/mL.

As for `Cc1cc(CCCOc2c(C)cc(-c3noc(C(F)(F)F)n3)cc2C)on1` [Pleconaril, 3-[3,5-dimethyl-4-[5-(3-methy-1,2-oxazolyl)propoxy]phenyl]-5-(trifluonomethyl) -1,2,4-oxadiazole, reference compound], in the series on Cox_B3 virus (Vero), the IC50 was found to be 0.04 µg/mL (≈ 0.105 µM). Besides, in the series on Vero cells, the “TC50 (half of the toxic concentration)” value was 17.25 µg/mL.
